In assay [1] the target is T1, recombinant human B1 receptors (Homo sapiens, UniProt P46663).
T1 construct: host or cells: CHO (CHO-B1)
T1 sequence (P46663 1-353): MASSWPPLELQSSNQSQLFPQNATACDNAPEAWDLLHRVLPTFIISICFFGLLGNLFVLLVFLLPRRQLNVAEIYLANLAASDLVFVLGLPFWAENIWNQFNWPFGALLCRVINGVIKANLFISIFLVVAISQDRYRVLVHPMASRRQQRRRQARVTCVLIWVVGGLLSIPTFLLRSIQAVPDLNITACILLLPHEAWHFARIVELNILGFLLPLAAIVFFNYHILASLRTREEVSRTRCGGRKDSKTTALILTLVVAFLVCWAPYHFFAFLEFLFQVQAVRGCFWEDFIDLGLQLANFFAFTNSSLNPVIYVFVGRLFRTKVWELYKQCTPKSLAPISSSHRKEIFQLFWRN
The assay can be described thus: Functional assay: antagonist potency by cytosolic calcium measurement in CHO-B1 cells (agonist LysDABK). Format: cell-based. The settings on record: CHO-B1 cells, LysDABK at EC80, fluo-4 [Ca2+]i; read-out: B1 func. As to the method: Assessment of Antagonist Potency at B1 and B2 Receptors In Vitro by Measurement of Cytosolic Calcium Ion Concentration with a Plate Reader Fluorimeter in Cells Expressing Recombinant Human B1 or B2 Receptors
Chinese hamster ovary (CHO) cells stably expressing recombinant human B1 (CHO-B1, Euroscreen) or B2 (CHO-B2, Perkin-Elmer) receptors were cultured in Dulbecco's Modified Eagle's Medium (DMEM) containing 10% Fetal Calf Serum (FCS), 100 U/ml penicillin, 0.1 mg/ml streptomycin, 0.25 μg/ml amphotericin B, 1% Minimum Essential Medium Eagle (MEM), non essential amino acid solution, 600 μg/ml G418, 1% pyruvate (for the B2 cell line). Cells were kept at 37° C. in a humidified incubator in an atmosphere of 5% CO2/95% air and were passaged 1:4 three times a week. Cells were plated at 1.5-2.5×10^4 cell/well on standard 96-well microplates, measurements of cytosolic calcium ion concentration ([Ca^2+]i) were carried out 1-2 days after cell plating.
Measurements of [Ca^2+]i were carried out on CHO-B1 and CHO-B2 cells stably expressing human B1 and B2 receptors, respectively. Cells were grown in standard 96-well microplates and before the measurement were loaded with a fluorescent Ca^2+-sensitive dye, fluo-4/AM (2 μM): after removing the culture medium the dye was added to the cells (dissolved in assay buffer: 145 mM NaCl, 5 mM KCl, 2 mM MgCl2, 2 mM CaCl2, 10 mM HEPES, 20 mM D-glucose, 2 mM probenecid, 100 μl/well) and cells were incubated at 37° C. in a humidified incubator in an atmosphere of 5% CO2/95% air for 40-120 min. To stop dye loading cells were washed twice with assay buffer. After washing, various concentrations of the test compounds (diluted in extracellular medium from a DMSO stock solution, final DMSO concentration was <0.1%) or buffer were added to each well depending on the experimental setup. After incubation at 37° C. for 20-25 min. baseline and agonist-evoked changes of [Ca^2+]i were measured column by column with a plate reader fluorimeter (Fluoroskan Ascent, Labsystems). Excitation and detection of emission was carried out from the bottom of the plate. Filters used for Fluo-4: excitation filter—485 nm, emission filter—538 nm. The whole measurement process was performed at 37° C. and was controlled by custom software. Inhibitory potency of the test compounds was assessed by measuring the reduction in the agonist-evoked [Ca^2+]i-elevation in the presence of different concentrations of the compounds. The agonists were LysDABK for CHO-B1, and bradykinin for CHO-B2 cells. Agonists were applied at an EC80 concentration, the EC80-values were derived from daily determined dose-response curves. Fluorescence data were expressed as ΔF/F (fluorescence change normalized to baseline). All treatments on a single plate were measured in multiple wells. Data from all wells with the same treatment were averaged and the average values were used for analysis. Inhibitory potency of a compound at a single concentration point was expressed as percent inhibition of the control agonist response. Sigmoidal concentration-inhibition curves were fitted to the data (derived from at least three independent experiments) and IC50-values were determined as the concentration that produces half of the maximal inhibition caused by the compound.

The target in assay [2] is T2, human recombinant bradykinin B1 receptor (Homo sapiens, UniProt P46663).
T2 construct: purchased Euroscreen ES-091; host or cells: CHO cells
T2 sequence (P46663 1-353): T1 sequence (P46663 1-353)
The assay can be described thus: Human recombinant bradykinin B1 receptor binding. The settings on record: CHO cell membranes, [3H]-[Des-Arg10] Kallidin radioligand; read-out: B1 binding. As for the experimental part: Receptor Binding Assays 1. Human Recombinant Bradykinin B1 Receptor Binding
Binding assays were carried out on human recombinant bradykinin) receptors (expressed in CHO cells) according to the Euroscreen Technical Data Sheet (Cat.No.:ES-091). 20 μg protein/tube was incubated with [3,4-prolyl-3,4-^3H(N)]-[Des-Arg^10] Kallidin as radioligand. Non specific binding was determined in the presence of 10 μM Lys-des-Arg^9-Bradykinin. The final incubation volume was 250 μl. Samples were incubated for 15 min. at 25° C. then were rapidly vacuum filtered through GF/B filters presoaked for at least 1 h in 0.5% PEI. Radioactivity was determined by liquid scintillation spectroscopy.

pIC50, pKi: −log10 of the molar value.

As to `O=C(NCC(=O)N1CCN(CCCN2CCCC2)CC1)c1ccc(S(=O)(=O)Nc2ccccc2Oc2ccccc2)cc1` [Example 2.5, N-{2-Oxo-2-[4-(3-pyrrolidin-1-yl-propyl)-piperazin-1-yl]-ethyl}-4-(2-phenoxy-phenylsulfamoyl)-benzamide], the pIC50 in assay [1] was over 7.70. Further, the pKi in assay [2] is over 7.70.
As to `CN(C)CCCN1CCN(C(=O)CNC(=O)c2ccc(S(=O)(=O)Nc3ccccc3Oc3ccccc3)cc2)CC1` [Example 2.6, N-{2-[4-(3-Dimethylamino-propyl)-piperazin-1-yl]-2-oxo-ethyl}-4-(2-phenoxy-phenylsulfamoyl)-benzamide], the pIC50 in assay [1] is over 7.70. Besides, the pKi in assay [2] was over 7.70.
`O=C(NCC(=O)N1CCC(CCN2CCCC2)CC1)c1ccc(S(=O)(=O)Nc2ccccc2Oc2ccccc2)cc1` [Example 2.7, N-{2-Oxo-2-[4-(2-pyrrolidin-1-yl-ethyl)-piperidin-1-yl]-ethyl}-4-(2-phenoxy-phenylsulfamoyl)-benzamide]: in assay [1], the pIC50 was over 7.70. Besides, the pKi in assay [2] is over 7.70.
With `O=C(NCC(=O)N1CCC(O)CC1)c1ccc(S(=O)(=O)Nc2ccccc2Oc2ccccc2)cc1` [Example 2.10, N-[2-(4-Hydroxy-piperidin-1-yl)-2-oxo-ethyl]-4-(2-phenoxy-phenylsulfamoyl)-benzamide], in assay [1], the pIC50 was 7.00 to 7.70. For the same compound, the pKi in assay [2] is 7.00 to 7.70.
In the case of `NC(=O)C1CCN(C(=O)CNC(=O)c2ccc(S(=O)(=O)Nc3ccccc3Oc3ccccc3)cc2)CC1` [Example 2.15, 1-{2-[4-(2-Phenoxy-phenylsulfamoyl)-benzoylamino]-acetyl}-piperidine-4-carboxylic acid amide], the pIC50 in assay [1] was 7.00 to 7.70. In addition, in assay [2], the pKi is 7.00 to 7.70.
On to `O=C(NCC(=O)N1CCC(CO)CC1)c1ccc(S(=O)(=O)Nc2ccccc2Oc2ccccc2)cc1` [Example 2.22, N-[2-(4-Hydroxymethyl-piperidin-1-yl)-2-oxo-ethyl]-4-(2-phenoxy-phenylsulfamoyl)-benzamide], for which the pIC50 in assay [1] is over 7.70. Also, the pKi in assay [2] was over 7.70.
With `CN1CCC(N2CCN(C(=O)CNC(=O)c3ccc(S(=O)(=O)Nc4ccccc4Oc4ccccc4)cc3)CC2)CC1` [Example 2.34, N-{2-[4-(1-Methyl-piperidin-4-yl)-piperazin-1-yl]-2-oxo-ethyl}-4-(2-phenoxy-phenylsulfamoyl)-benzamide], in assay [1], the pIC50 was over 7.70. The pKi in assay [2] was over 7.70.
As for `O=C(NCC(=O)N1CCN(CCN2CCCC2)CC1)c1ccc(S(=O)(=O)Nc2ccccc2C(=O)c2ccccc2)cc1` [Example 3.1, 4-(2-Benzoyl-phenylsulfamoyl)-N-{2-oxo-2-[4-(2-pyrrolidin-1-yl-ethyl)-piperazin-1-yl]-ethyl}-benzamide], the pIC50 in assay [1] was over 7.70. Further, the pKi in assay [2] is over 7.70.
Regarding `CN(C)CCN1CCN(C(=O)CNC(=O)c2ccc(S(=O)(=O)Nc3ccccc3C(=O)c3ccccc3)cc2)CC1` [Example 3.2, 4-(2-Benzoyl-phenylsulfamoyl)-N-{2-[4-(2-dimethylamino-ethyl)-piperazin-1-yl]-2-oxo-ethyl}-benzamide], in assay [1], the pIC50 was over 7.70. Besides, the pKi in assay [2] was over 7.70.
For the compound `O=C(NCC(=O)N1CCCCC1)c1ccc(S(=O)(=O)Nc2ccccc2C(=O)c2ccccc2)cc1` [Example 3.3, 4-(2-Benzoyl-phenylsulfamoyl)-N-(2-oxo-2-piperidin-1-yl-ethyl)-benzamide], the pIC50 in assay [1] is over 7.70. In assay [2], the pKi was over 7.70.
`O=C(NCC(=O)N1CCCCCC1)c1ccc(S(=O)(=O)Nc2ccccc2C(=O)c2ccccc2)cc1` [Example 3.4, N-(2-Azepan-1-yl-2-oxo-ethyl)-4-(2-benzoyl-phenylsulfamoyl)-benzamide]: the pIC50 in assay [1] was over 7.70. For the same compound, the pKi in assay [2] was over 7.70.
As for `N#CC1CCN(C(=O)CNC(=O)c2ccc(S(=O)(=O)Nc3ccccc3C(=O)c3ccccc3)cc2)CC1` [Example 3.5, 4-(2-Benzoyl-phenylsulfamoyl)-N-[2-(4-cyano-piperidin-1-yl)-2-oxo-ethyl]-benzamide], in assay [1], the pIC50 is over 7.70. In addition, in assay [2], the pKi is over 7.70.
On to `O=C(NCC(=O)N1CCC(C(F)(F)F)CC1)c1ccc(S(=O)(=O)Nc2ccccc2C(=O)c2ccccc2)cc1` [Example 3.6, 4-(2-Benzoyl-phenylsulfamoyl)-N-[2-oxo-2-(4-trifluoromethyl-piperidin-1-yl)-ethyl]-benzamide], for which, in assay [1], the pIC50 was over 7.70. The pKi in assay [2] was over 7.70.
As for `CC1CCN(C(=O)CNC(=O)c2ccc(S(=O)(=O)Nc3ccccc3C(=O)c3ccccc3)cc2)CC1` [Example 3.7, 4-(2-Benzoyl-phenylsulfamoyl)-N-[2-(4-methyl-piperidin-1-yl)-2-oxo-ethyl]-benzamide], the pIC50 in assay [1] was over 7.70. Also, the pKi in assay [2] was over 7.70.
Turning to `CN1CCCC(CN2CCN(C(=O)CNC(=O)c3ccc(S(=O)(=O)Nc4ccccc4C(=O)c4ccccc4)cc3)CC2)C1` (stereo not shown) [Example 3.8, 4-(2-Benzoyl-phenylsulfamoyl)-N-{2-[4-(1-methyl-piperidin-3-ylmethyl)-piperazin-1-yl]-2-oxo-ethyl}-benzamide], the pIC50 in assay [1] was over 7.70. Moreover, the pKi in assay [2] is over 7.70.
As for `O=C(NCC(=O)N1CCC(CO)CC1)c1ccc(S(=O)(=O)Nc2ccccc2C(=O)c2ccccc2)cc1` [Example 3.9, 4-(2-Benzoyl-phenylsulfamoyl)-N-[2-(4-hydroxymethyl-piperidin-1-yl)-2-oxo-ethyl]-benzamide], the pIC50 in assay [1] was over 7.70. Further, in assay [2], the pKi was over 7.70.
Take `O=C(NCC(=O)N1CCC(CCO)CC1)c1ccc(S(=O)(=O)Nc2ccccc2C(=O)c2ccccc2)cc1` [Example 3.10, 4-(2-Benzoyl-phenylsulfamoyl)-N-{2-[4-(2-hydroxy-ethyl)-piperidin-1-yl]-2-oxo-ethyl}-benzamide]: the pIC50 in assay [1] was over 7.70. Also, in assay [2], the pKi was over 7.70.
Regarding `O=C(NCC(=O)N1CCN(CCCN2CCCC2)CC1)c1ccc(S(=O)(=O)Nc2ccccc2C(=O)c2ccccc2)cc1` [Example 3.13, 4-(2-Benzoyl-phenylsulfamoyl)-N-{2-oxo-2-[4-(3-pyrrolidin-1-yl-propyl)-piperazin-1-yl]-ethyl}-benzamide], in assay [1], the pIC50 was over 7.70. In assay [2], the pKi is over 7.70.
Take `CN(C)CCCN1CCN(C(=O)CNC(=O)c2ccc(S(=O)(=O)Nc3ccccc3C(=O)c3ccccc3)cc2)CC1` [Example 3.14, 4-(2-Benzoyl-phenylsulfamoyl)-N-{2-[4-(3-dimethylamino-propyl)-piperazin-1-yl]-2-oxo-ethyl}-benzamide]: in assay [1], the pIC50 is over 7.70. The pKi in assay [2] is over 7.70.
`O=C(NCC(=O)N1CCC(CCN2CCCC2)CC1)c1ccc(S(=O)(=O)Nc2ccccc2C(=O)c2ccccc2)cc1` [Example 3.15, 4-(2-Benzoyl-phenylsulfamoyl)-N-{2-oxo-2-[4-(2-pyrrolidin-1-yl-ethyl)-piperidin-1-yl]-ethyl}-benzamide]: the pIC50 in assay [1] is over 7.70. Besides, in assay [2], the pKi is over 7.70.
